pKi: −log10 of the molar value.
These molecules were tested against Mcl-1 protein (UniProtKB Q07820) (Homo sapiens (Human), UniProt Q07820) (assay: Inhibition of Mcl-1 by the fluorescence polarisation assay (Example A, Method A)). Conditions: fluorescence polarization assay.
Format: binding
Procedure, shortened: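 Protein (5 nM) and fluorescein-tagged peptide tracer (1 nM) incubated with 11-point compound series for 2 h at room temperature in HEPES/NaCl/Tween 20 buffer, pH 7.4, 5% DMSO. Displacement read as decrease in polarisation; IC50 fitted by 4-parameter logistic, converted to Ki (cKi or eKi).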

Chain of Mcl-1 protein (Q07820 whole entry): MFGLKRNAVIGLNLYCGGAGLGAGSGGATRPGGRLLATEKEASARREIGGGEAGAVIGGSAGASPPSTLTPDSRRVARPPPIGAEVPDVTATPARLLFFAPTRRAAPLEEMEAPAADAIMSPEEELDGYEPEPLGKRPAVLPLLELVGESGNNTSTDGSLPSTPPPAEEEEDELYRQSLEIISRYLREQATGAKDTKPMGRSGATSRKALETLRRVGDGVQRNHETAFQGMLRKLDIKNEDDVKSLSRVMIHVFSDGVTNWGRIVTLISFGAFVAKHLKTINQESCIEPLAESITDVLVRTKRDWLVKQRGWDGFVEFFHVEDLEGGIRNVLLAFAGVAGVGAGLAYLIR

Structure (SMILES)	pKi
COCCOc1cccc(C2=Cc3ccccc3[C@]23CC[C@@](Nc2cccc(Cl)c2)(C(=O)O)CC3)c1 [Example 315, (1s,4s)-4-(3-chloroanilino)-2′-[3-(2-methoxyethoxy)phenyl]spiro[cyclohexane-1,1′-indene]-4-carboxylic acid]	6.26
Cc1csc(C2=Cc3ccccc3[C@]23CC[C@@](Nc2cccc(Cl)c2)(C(=O)O)CC3)c1 [Example 316, (1s,4s)-4-(3-chloroanilino)-2′-(4-methylthiophen-2-yl)spiro[cyclohexane-1,1′-indene]-4-carboxylic acid]	5.73
O=C(O)[C@]1(Nc2cccc(Cl)c2)CC[C@@]2(CC1)c1ccccc1C[C@@H]2c1cccc(Oc2ccccc2)c1 [Example 324, (1r,2′R,4R)-4-(3-chloroanilino)-2′-(3-phenoxyphenyl)-2′,3′-dihydrospiro[cyclohexane-1,1′-indene]-4-carboxylic acid]	5.07
O=C(O)[C@]1(Nc2cccc(Cl)c2)CC[C@@]2(CC1)c1ccccc1C[C@H]2c1cccc(Cc2ccccc2)c1 [Example 325, (1r,2′S,4S)-2′-(3-benzylphenyl)-4-(3-chloroanilino)-2′,3′-dihydrospiro[cyclohexane-1,1′-indene]-4-carboxylic acid]	6.54
O=C(O)[C@]1(Nc2cccc(Cl)c2)CC[C@@]2(CC1)c1ccccc1C[C@@H]2c1cccc(Cc2ccccc2)c1 [Example 326, (1r,2′R,4R)-2′-(3-benzylphenyl)-4-(3-chloroanilino)-2′,3′-dihydrospiro[cyclohexane-1,1′-indene]-4-carboxylic acid]	4.71
O=C(O)[C@]1(Nc2cccc(Cl)c2)CC[C@]2(CC1)C(c1cccc(Cl)c1)=Cc1ccccc12 [Example 334, (1s,4s)-4-(3-chloroanilino)-2′-(3-chlorophenyl)spiro[cyclohexane-1,1′-indene]-4-carboxylic acid]	5.70
COc1cc(OC)cc([C@@H]2Cc3ccccc3[C@]23CC[C@@](Nc2cccc(Cl)c2)(C(=O)O)CC3)c1 [Example 336, (1r,2′S,4S)-4-(3-chloroanilino)-2′-(3,5-dimethoxyphenyl)-2′,3′-dihydrospiro[cyclohexane-1,1′-indene]-4-carboxylic acid]	5.61
O=C(O)[C@]1(Nc2cccc(Cl)c2)CC[C@@]2(CC1)c1ccccc1C[C@@H]2c1cc2ccccc2o1 [Example 338, (1r,2′S,4S)-2′-(1-benzofuran-2-yl)-4-(3-chloroanilino)-2′,3′-dihydrospiro[cyclohexane-1,1′-indene]-4-carboxylic acid]	5.24
O=C(O)[C@]1(Nc2cccc(Cl)c2)CC[C@]2(CC1)C(c1cccc(OCC3CC3)c1)=Cc1ccccc12 [Example 339, (1s,4s)-4-(3-chloroanilino)-2′-[3-(cyclopropylmethoxy)phenyl]spiro[cyclohexane-1,1′-indene]-4-carboxylic acid]	6.81
O=C(O)[C@]1(Nc2cccc(Cl)c2)CC[C@]2(CC1)C(c1ccc(OCc3ccncc3)cc1)=Cc1ccccc12 [Example 349, (1s,4s)-4-(3-chloroanilino)-2′-{4-[(pyridin-4-yl)methoxy]phenyl}spiro[cyclohexane-1,1′-indene]-4-carboxylic acid]	5.44
O=C(O)[C@]1(Nc2cccc(Cl)c2)CC[C@@]2(CC1)c1ccccc1C[C@H]2c1ccc(-c2ccccc2)o1 [Example 356, (1r,2′R,4R)-4-(3-chloroanilino)-2′-(5-phenylfuran-2-yl)-2′,3′-dihydrospiro[cyclohexane-1,1′-indene]-4-carboxylic acid]	6.32
O=C(O)[C@]1(Nc2cccc(Cl)c2)CC[C@@]2(CC1)c1ccccc1C[C@@H]2c1ccc(-c2ccccc2)o1 [Example 357, (1r,2′S,4S)-4-(3-chloroanilino)-2′-(5-phenylfuran-2-yl)-2′,3′-dihydrospiro[cyclohexane-1,1′-indene]-4-carboxylic acid]	4.81
O=C(O)[C@]1(Nc2cccc(Cl)c2)CC[C@@]2(CC1)c1ccccc1C[C@@H]2c1ccc(Oc2ccccc2)cc1 [Example 359, (1r,2′R,4R)-4-(3-chloroanilino)-2′-(4-phenoxyphenyl)-2′,3′-dihydrospiro[cyclohexane-1,1′-indene]-4-carboxylic acid]	5.67
O=C(O)[C@]1(Nc2cccc(Cl)c2)CC[C@@]2(CC1)c1ccccc1CC2c1ccc(Oc2cccnc2)cc1 (stereo partly shown) [Example 367, (1r,4r)-4-(3-chloroanilino)-2′-{4-[(pyridin-3-yl)oxy]phenyl}-2′,3′-dihydrospiro[cyclohexane-1,1′-indene]-4-carboxylic acid]	6.35
O=C(O)[C@]1(Nc2cccc(Cl)c2)CC[C@]2(CC1)C(c1cc3cc(-c4ccncc4)ccc3o1)=Cc1ccccc12 [Example 375, (1s,4s)-4-(3-chloroanilino)-2′-[5-(pyridin-4-yl)-1-benzofuran-2-yl]spiro[cyclohexane-1,1′-indene]-4-carboxylic acid]	5.32

The remaining molecules from weak to strong by pKi, led by results:

pKi	Structure (SMILES)
4.76	O=C(O)[C@]1(Nc2cccc(Cl)c2)CC[C@]2(CC1)C(C1=CCN(Cc3ccccc3)CC1)=Cc1ccccc12 [Example 360, (1r,4r)-2′-(1-benzyl-1,2,3,6-tetrahydropyridin-4-yl)-4-(3-chloroanilino)spiro[cyclohexane-1,1′-indene]-4-carboxylic acid]
4.83	O=C(O)[C@]1(Nc2cccc(Cl)c2)CC[C@]2(CC1)C(c1cc3c(-c4ccncc4)cccc3o1)=Cc1ccccc12 [Example 361, (1s,4s)-4-(3-chloroanilino)-2′-[4-(pyridin-4-yl)-1-benzofuran-2-yl]spiro[cyclohexane-1,1′-indene]-4-carboxylic acid]
4.88	O=C(O)[C@]1(Nc2cccc(Cl)c2)CC[C@@]2(CC1)c1ccccc1C[C@@H]2c1cccc(OCc2ccccc2)c1 [Example 333, (1r,2′R,4R)-2′-[3-(benzyloxy)phenyl]-4-(3-chloroanilino)-2′,3′-dihydrospiro[cyclohexane-1,1′-indene]-4-carboxylic acid]
5.66	COc1cc(Cl)cc(C2=Cc3ccccc3[C@]23CC[C@@](Nc2cccc(Cl)c2)(C(=O)O)CC3)c1 [Example 331, (1s,4s)-4-(3-chloroanilino)-2′-(3-chloro-5-methoxyphenyl)spiro[cyclohexane-1,1′-indene]-4-carboxylic acid]
5.67	O=C(O)[C@]1(Nc2cccc(Cl)c2)CC[C@]2(CC1)C(c1ccsc1)=Cc1ccccc12 [Example 330, (1s,4s)-4-(3-chloroanilino)-2′-(thiophen-3-yl)spiro[cyclohexane-1,1′-indene]-4-carboxylic acid]
5.72	Cc1cc(C2=Cc3ccccc3[C@]23CC[C@@](Nc2cccc(Cl)c2)(C(=O)O)CC3)cs1 [Example 318, (1s,4s)-4-(3-chloroanilino)-2′-(5-methylthiophen-3-yl)spiro[cyclohexane-1,1′-indene]-4-carboxylic acid]
5.76	O=C(O)[C@]1(Nc2cccc(Cl)c2)CC[C@]2(CC1)C(c1ccc(OCc3cccnc3)cc1)=Cc1ccccc12 [Example 350, (1s,4s)-4-(3-chloroanilino)-2′-{4-[(pyridin-3-yl)methoxy]phenyl}spiro[cyclohexane-1,1′-indene]-4-carboxylic acid]
5.78	O=C(O)[C@]1(Nc2cccc(Cl)c2)CC[C@]2(CC1)C(c1ccoc1)=Cc1ccccc12 [Example 329, (1s,4s)-4-(3-chloroanilino)-2′-(furan-3-yl)spiro[cyclohexane-1,1′-indene]-4-carboxylic acid]
5.86	COc1ccc2c(c1)[C@]1(CC[C@@](Nc3cccc(Cl)c3)(C(=O)O)CC1)C(c1cccc(C)c1)=C2 [Example 366, (1r,4r)-4-(3-chloroanilino)-6′-methoxy-2′-(3-methylphenyl)spiro[cyclohexane-1,1′-indene]-4-carboxylic acid]
5.88	O=C(O)C1(Nc2cccc(Cl)c2)CCC2(CC1)c1ccccc1CC2c1ccc(OCc2cccnc2)cc1 (stereo not shown) [Example 368, (1r,4r)-4-(3-chloroanilino)-2′-{4-[(pyridin-3-yl)methoxy]phenyl}-2′,3′-dihydrospiro[cyclohexane-1,1′-indene]-4-carboxylic acid]
6.03	O=C(O)[C@]1(Nc2cccc(Cl)c2)CC[C@]2(CC1)C(c1ccc(-c3ccccc3)o1)=Cc1ccccc12 [Example 317, (1s,4s)-4-(3-chloroanilino)-2′-(5-phenylfuran-2-yl)spiro[cyclohexane-1,1′-indene]-4-carboxylic acid]
6.04	O=C(O)[C@]1(Nc2cccc(Cl)c2)CC[C@]2(CC1)C(c1cccc3occc13)=Cc1ccccc12 [Example 340, (1s,4s)-2′-(1-benzofuran-4-yl)-4-(3-chloroanilino)spiro[cyclohexane-1,1′-indene]-4-carboxylic acid]
6.05	Cc1cccc(C2=Cc3ccccc3[C@]23CC[C@@](Nc2cccc(Cl)c2)(C(=O)O)CC3)c1 [Example 335, (1s,4s)-4-(3-chloroanilino)-2′-(3-methylphenyl)spiro[cyclohexane-1,1′-indene]-4-carboxylic acid]
6.11	O=C(O)[C@]1(Nc2cccc(Cl)c2)CC[C@]2(CC1)C(c1ccc(Oc3ccncc3)cc1)=Cc1ccccc12 [Example 342, (1s,4s)-4-(3-chloroanilino)-2′-{4-[(pyridin-4-yl)oxy]phenyl}spiro[cyclohexane-1,1′-indene]-4-carboxylic acid]
6.26	O=C(O)[C@]1(Nc2cccc(Cl)c2)CC[C@]2(CC1)C(c1ccc(Oc3cccnc3)cc1)=Cc1ccccc12 [Example 351, (1s,4s)-4-(3-chloroanilino)-2′-{4-[(pyridin-3-yl)oxy]phenyl}spiro[cyclohexane-1,1′-indene]-4-carboxylic acid]
6.28	O=C(O)[C@]1(Nc2cccc(Cl)c2)CC[C@]2(CC1)C(c1cccc(OC(F)(F)F)c1)=Cc1ccccc12 [Example 314, (1s,4s)-4-(3-chloroanilino)-2′-[3-(trifluoromethoxy)phenyl]spiro[cyclohexane-1,1′-indene]-4-carboxylic acid]
